Reference: US5759991A, “Neurotrophic peptide derivatives” (Sumitomo Pharmaceutical Company, Limited., priority 1991, dated 1998)

Assays:
[1] = tested on: tissue of medial septum nuclei; test: acetylcholine synthesis activity of cultured medial septum nucleus tissue (method of Ojika et al.); type: cell-based; conditions: human-derived HCNP peptide compared with rat-derived HCNP
Source text: The neurotrophic activity (also called neurotrophic factor activity) refers to, for example, an action of regulating differentiation and maturation of neuronal cells, namely, an action of accelerating the acetylcholine synthesis in the tissue of medial septum nuclei which is rich in cholinergic neurons.
The human-derived neurotrophic peptide or its derivatives of the present invention can regulate differentiation and maturation of neuronal cells. That is, the neurotrophic peptide and derivatives thereof accelerate the acetylcholine synthesis in the tissue of medial septum nuclei. The biological activity can be determined by the method of Ojika, K., et a. (Reference 66).
Medial septal nucleus was extracted from the brains of 16-day-old SD rat embryos and microscopically dissected into small pieces. […]
Except in the experiment for the study of sequential growth, the cultured tissue on the 9th day was washed with a Tris-HCl (pH 7.4) buffered Tyrode's solution, followed by preincubation in a high-K (55 mM KCl) Tyrode's solution, and then incubation in a Tyrode's solution containing ^3 H-choline chloride at 37° C. for 30 minutes. […] The choline uptake and Ach-productivity were expressed as amounts per one piece of cultured tissue. Choline acetyl-transferase (CATase) was measured using ^14 C-acetyl-CoA, according to the method of Fonnum, biochemical Journal, 115, 465-472 (1969). […]

[2] = tested on: tissue of medial septum nuclei; conditions: rat medial septum nuclei acetylcholinergic neuron; Reference 1; cited from earlier work

| Substance | neurotrophic activity (acceleration of acetylcholine synthesis) [1] | production of acetylcholine [2] |
| --- | --- | --- |
| H-PVDLSKWSGPL-OH [hHCNP, H-Pro-Val-Asp-Leu-Ser-Lys-Trp-Ser-Gly-Pro-Leu-OH] | neurotrophic activity similar to rat-derived HCNP was noted | – |
| HCNP: hippocampal cholinergic neurotrophic peptide composed of 11 amino acid residues isolated from hippocampal tissue of neonatal rat (AADISQWAGPL) | – | enhances production of acetylcholine |
